In article PMC11460631, “Inhibition of transient receptor potential vanilloid 3 channels by antimalarial hydroxychloroquine alleviates TRPV3-dependent dermatitis” (The Journal of Biological Chemistry, 2024):

Columns and labels:
[1] = target: T1, hTRPA1 (Homo sapiens, UniProt O75762); test: Whole-cell current recordings, hTRPA1; format: cell-based; conditions: 100 μM HCQ; current activated by 500 μM allyl isothiocyanate
T1 construct: YFP or GFP; expressed in transfected cells; host or cells: HEK293T
T1 sequence (O75762 whole entry): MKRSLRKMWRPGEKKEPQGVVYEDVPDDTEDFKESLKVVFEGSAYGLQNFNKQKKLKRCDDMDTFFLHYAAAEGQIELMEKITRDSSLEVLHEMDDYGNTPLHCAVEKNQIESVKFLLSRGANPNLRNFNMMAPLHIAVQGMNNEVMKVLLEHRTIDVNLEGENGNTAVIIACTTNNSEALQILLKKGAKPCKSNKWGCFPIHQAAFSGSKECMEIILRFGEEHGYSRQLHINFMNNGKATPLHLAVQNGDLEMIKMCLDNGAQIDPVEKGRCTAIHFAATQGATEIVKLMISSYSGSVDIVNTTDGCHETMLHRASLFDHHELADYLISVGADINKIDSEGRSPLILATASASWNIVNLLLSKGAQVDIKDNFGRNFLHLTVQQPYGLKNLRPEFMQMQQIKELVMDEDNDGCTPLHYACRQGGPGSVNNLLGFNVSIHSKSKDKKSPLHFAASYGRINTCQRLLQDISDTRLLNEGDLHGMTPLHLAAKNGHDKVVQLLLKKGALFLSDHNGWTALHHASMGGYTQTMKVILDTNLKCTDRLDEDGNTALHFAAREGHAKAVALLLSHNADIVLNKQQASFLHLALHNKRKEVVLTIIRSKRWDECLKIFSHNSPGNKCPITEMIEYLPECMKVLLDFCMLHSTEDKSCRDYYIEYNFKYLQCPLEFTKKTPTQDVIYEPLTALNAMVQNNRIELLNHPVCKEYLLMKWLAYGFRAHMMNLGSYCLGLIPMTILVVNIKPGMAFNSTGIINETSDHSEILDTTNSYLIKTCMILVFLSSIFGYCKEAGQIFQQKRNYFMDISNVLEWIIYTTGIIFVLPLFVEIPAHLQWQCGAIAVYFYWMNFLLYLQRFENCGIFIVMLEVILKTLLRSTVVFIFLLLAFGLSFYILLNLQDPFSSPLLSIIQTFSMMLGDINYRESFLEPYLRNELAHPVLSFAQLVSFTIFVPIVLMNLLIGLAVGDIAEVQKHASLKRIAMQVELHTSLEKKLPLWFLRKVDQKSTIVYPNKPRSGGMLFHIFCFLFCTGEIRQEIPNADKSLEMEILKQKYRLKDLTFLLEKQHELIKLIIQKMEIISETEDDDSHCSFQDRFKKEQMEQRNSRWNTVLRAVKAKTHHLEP
Procedure: To elucidate the specificity of HCQ inhibition on TRPV3, we conducted whole-cell current recordings on other known pruritus-related TRP channels, such as hTRPA1, mTRPV1, mTRPV4, and mTRPM8 (Fig. 3, A and F). […] Because of the relatively larger inhibition of HCQ on mTRPM8 current, we tested the concentration dependence of HCQ on mTRPM8 channels.
HEK293T cells are cultured using Dulbecco's modified Eagle's medium containing 10% fetal bovine serum and 1% penicillin-streptomycin in a cell incubator with 5% CO2 at 37 °C. Plasmids of murine TRPV1, TRPV4, TRPM8, and human TRPV3, TRPA1 are labeled with YFP or GFP as indicators for subsequent electrophysiological recordings. Complementary DNA constructs of ion channels were transiently transfected with Lipofectamine 3000 (Invitrogen). And 12 to 18 h after transient transfection, electrophysiological recordings were performed.
Patch-clamp recordings were carried out with a HEKA EPC10 amplifier controlled by PatchMaster software (HEKA; https://www.heka.com/products/products_main.html#soft_pm) ([36]). Patch pipettes were prepared from borosilicate glass and fire-polished to the resistance of 3 to 8 MΩ by P-97 puller for whole-cell recordings. For single-channel recordings, patch pipettes were fire-polished to a higher resistance of 6 to 10 MΩ. […]

[2] = target: T2, TRPV3 Y594F mutation (Homo sapiens, UniProt Q8NET8, Y594F); test: Whole-cell recording of TRPV3 Y594F mutant; format: cell-based; conditions: 1 mM 2-APB, ± 80 mV
T2 construct: YFP or GFP; expressed in transfected cells; host or cells: HEK293T
T2 sequence (Q8NET8 1-790 Y594F): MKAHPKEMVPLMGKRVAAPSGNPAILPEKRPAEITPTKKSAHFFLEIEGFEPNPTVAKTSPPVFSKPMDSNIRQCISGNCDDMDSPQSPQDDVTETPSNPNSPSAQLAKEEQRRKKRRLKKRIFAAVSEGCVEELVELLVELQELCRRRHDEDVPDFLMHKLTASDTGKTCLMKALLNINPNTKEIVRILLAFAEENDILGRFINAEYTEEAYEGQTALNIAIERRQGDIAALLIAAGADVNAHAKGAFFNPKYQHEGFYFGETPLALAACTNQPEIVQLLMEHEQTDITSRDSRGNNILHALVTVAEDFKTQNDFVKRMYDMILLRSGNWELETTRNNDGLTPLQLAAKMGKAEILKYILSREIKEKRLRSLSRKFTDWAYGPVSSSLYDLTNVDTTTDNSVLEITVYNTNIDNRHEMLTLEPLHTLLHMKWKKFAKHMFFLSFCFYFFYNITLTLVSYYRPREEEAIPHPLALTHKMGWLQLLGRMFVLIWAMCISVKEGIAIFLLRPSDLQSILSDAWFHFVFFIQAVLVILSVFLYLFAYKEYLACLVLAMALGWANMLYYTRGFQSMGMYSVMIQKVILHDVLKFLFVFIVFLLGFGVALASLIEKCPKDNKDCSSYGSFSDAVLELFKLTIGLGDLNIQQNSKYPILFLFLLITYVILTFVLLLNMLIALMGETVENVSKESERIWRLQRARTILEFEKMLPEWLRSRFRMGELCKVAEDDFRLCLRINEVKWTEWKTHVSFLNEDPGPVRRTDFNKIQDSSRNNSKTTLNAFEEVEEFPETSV
From the text: As we mentioned above, HCQ may act as a pore blocker of TRPV3. To probe the binding configuration of HCQ to TRPV3, we carried out molecular docking using Rosetta suite (https://rosettacommons.org) ([21]) and validated the docking models with point mutations in TRPV3 (Fig. 4A). […] Furthermore, when we introduced L670A to L591A mutant, we also observed a left shift on the concentration–response curve on this double mutant as compared to L591A mutant (Fig. 4H).
Figure 4 Residues of the pore domain are critical for HCQ inhibition on TRPV3.A, left panel, docking model of HCQ to the pore domain of TRPV3 structure (6uw4). Right panels, top view and side view of the HCQ-binding pocket. B-J, representative whole-cell recording of TRPV3 and mutants in response to 1 mM 2-APB, the mixture of 1 mM 2-APB and concentration gradients of HCQ with the holding potential of ± 80 mV. K, concentration–response curves of HCQ in WT TRPV3 and mutants (n = 3–5 cells). L, quantification of the inhibitory ratio of HCQ (100 μM) on WT, L591A, and N671Q. […]
All data from whole-cell recordings were analyzed in Igor Pro (WaveMetrics). IC50 values were determined by fitting the Hill equation to concentration-response relationships. […]

For `CCN(CCO)CCCC(C)Nc1ccnc2cc(Cl)ccc12` (centres unmarked) [HCQ, hydroxychloroquine], the “reduction of hTRPA1 current” value [1] was 11.37% ± 4.10% and the IC50 [2] was 34.8 ± 1.59 µM.
